Laboratory results published in patent US6063777A, “Iminochlorinaspartic acid derivatives” (Wyeth Lederle Japan, Ltd., priority 1996, dated 2000).
Values after ≈ are worked out from the molar mass of the structure shown.

How the values were obtained:
[1] = Phosphorescence life time; type: physicochemical
[2] = Water solubility; type: physicochemical
[3] = tested on: colon cancer Colon 26; assay: Laser irradiation to extirpated organ: distribution (cancer/organ ratio) by surface fluorescence, N2-pulsed laser, mice bearing Colon 26; type: in vivo, CDF1 mice; settings: for Cancer/Brain ratio / Cancer/Kidney ratio / Cancer/Liver ratio / Cancer/Lung ratio / Cancer/Muscle ratio: sodium salt, 10 mg/kg intravenous
Protocol: (§1) CDF1 mice (5 per group) were implanted with tumor tissues of colon cancer Colon 26. Two weeks after the implantation, the mice were given an intravenous injection of sodium salt of each of compounds (I) and (II) (10 mg/kg for each mouse) which had been diluted with a distilled water for injection. At 3 hrs, 6 hrs and 12 hrs after the injection, the blood samples were collected and the organs bearing the tumor tissue were extirpated, irradiated with N2 -pulsed laser (N2, wavelength: 337 nm, 2 ns), and the excited fluorescent spectrum was measured. The wavelengths in the range of 600 to 900 nm were examined based on the peak wavelength of NADH at 470 nm (determination of the distribution of the test compound in the organ by the surface fluorescence method using N2 -pulsed laser spectrophotometry). That is, cancer/organ (or plasma) ratio was determined by calculating the peak wavelength in the range of 600 to 900 nm when the peak wavelength at 470 nm was considered as the basic value, 1.

[4] = as above; type: in vivo, CDF1 mice; settings: mouse, tumor/plasma, sodium salt, 10 mg/kg intravenous
Protocol: as §1

[5] = Absorption wavelength / molar absorption coefficient; type: physicochemical
[6] = tested on: choroidal neoplastic vessels; assay: Occlusion of choroidal neoplastic vessels by PDT, histological findings 24 hours after laser irradiation; type: in vivo, rats (Long Evance Rats); settings: for Occlusion of choroidal neoplastic vessels: 16 mg/kg
Protocol: (§2) The following experiments were performed to investigate the optimal treatment parameters (timing of laser irradiation after dosing of the compound; laser irradiation dosage) for selective occlusion of choroidal neoplastic vessels by PDT using the compound of the present invention and a diode laser (produced by Hamamatsu Photonics; wavelength: 672 nm).
(§3) Photocoagulation was induced in rats (Long Evance Rats weighing 200-300 g) by Argon green laser irradiation (irradiation diameter: 100 μm, 140 mW, 0.1 sec) near the retinal papilla on funduc oculi. Ten days after photocoagulation, fundus photographs and fluorescein angiographs were taken and the animals showing development of choroidal neovascularization were used for experiments at the 11th day.
(§4) The compound of the present invention was administered via the tail vein at a dose of 16 mg/kg. After administration, time course distribution of the compound in the eyeball tissues was observed by fluorescence microscopy.
(§5) Laser irradiation was done by using the above-mentioned diode laser. The laser beam was confirmed to extend in the range of 500 μm in diameter on the retinal surface. Duration of irradiation was 4 minutes and the irradiation intensity varied at 30.6, 91.7, 152.9 and 244.9 mW/cm^2 on the retinal surface. These values correspond to 7.4, 22.0, 36.7 and 58.8 J/cm^2, respectively.
(§6) Assessment of the PDT using the compound of the present invention was made based on the fundus photographs taken with a fundus camera (produced by Jenesis Kowa) at 1 hour and 24 hours after laser irradiation. Occlusion of the neoplastic vessels and damage to the surrounding tissues were investigated by fluorescein antiography and histological examinations to assess the selectivity of the therapeutic effect.

[7] = tested on: cancerous tissues; assay: Accumulability to cancerous tissues and excretion from normal tissues (general findings); type: in vivo
[8] = tested on: HeLa cells; assay: HeLa cell survival after diode laser (670 nm) irradiation, MTS-PMS reagent; type: cell-based
Protocol: HeLa cells were seeded in wells of a 96-well plate each containing 100 μl of a culture medium at 5×10^3 /well, and incubated at 37° C. overnight. In each well, the culture medium was removed, and 100 μl of a solution containing sodium salt of either of compound (I) or compound (II) in concentrations of 0, 6.25, 12.5, 25, 50 and 100 μM/ml was added (3 wells for each group of the concentrations) and incubated at 37° C. at for 6 hrs. Each well was washed with PBS(-) once, and then 100 μl of a fresh medium was added. The wells were irradiated using a diode laser (670 nm) under the conditions of 0.44W of laser intensity, 0.785 cm^2 of irradiation area (diameter: 1 cm) and 25 J/cm^2 of laser energy. After the irradiation, each well was incubated at 37° C. overnight and washed with PBS(-) once, then 100 μl of a fresh medium was added. To each well was added 20 μl of MTS-PMS reagent, and the well was further incubated at 37° C. for 2-4 hrs. The absorbance of each well at 492 nm was measured using a microplate reader. The cell survival rate at each of the above mentioned concentrations of the test compound was calculated considering the value for the well of 0 μM/ml of the test compound as 100%.

[9] = tested on: choroidal arteries and veins; assay: Occlusion of choroidal arteries and veins by PDT, histological findings 24 hours after laser irradiation; type: in vivo, rats (Long Evance Rats); settings: 16 mg/kg
Protocol: as §2, §3, §4, §5, §6

[10] = 7.4 J/cm^2, irradiation 60 min after administration
[11] = 22.0 J/cm^2, irradiation 60 min after administration
[12] = 22.0 J/cm^2, irradiation 120 min after administration
[13] = 22.0 J/cm^2, irradiation 240 min after administration
[14] = 36.7 J/cm^2, irradiation 60 min after administration
[15] = 36.7 J/cm^2, irradiation 120 min after administration
[16] = 36.7 J/cm^2, irradiation 240 min after administration
[17] = 36.7 J/cm^2, irradiation immediately after administration
[18] = 58.8 J/cm^2, irradiation 60 min after administration
[19] = 58.8 J/cm^2, irradiation 120 min after administration
[20] = 58.8 J/cm^2, irradiation 240 min after administration
[21] = 58.8 J/cm^2, irradiation immediately after administration

C=Cc1c(C)c2cc3nc(cc4[nH]c(cc5nc(cc1[nH]2)C(C)=C5CCC(=O)NC(CC(=O)O)C(=O)O)c(CCC(=O)NC(CC(=O)O)C(=O)O)c4C)C(C)(O)C3=CC=NO (centres unmarked) [Compound (I)]
phosphorescence life time [1]: long phosphorescence life time
water solubility [2]: good water solubility
solubility ([2]; water, aqueous solution, read-out: high concentration solution (water solubility)): 50 mg/mL (≈ 59.5 mM)
Cancer/Brain ratio ([3]; 3 hr): 11.24
Cancer/Kidney ratio ([3]; 3 hr): 1.54
Cancer/Liver ratio ([3]; 3 hr): 1.35
Cancer/Lung ratio ([3]; 3 hr): 5.02
Cancer/Muscle ratio ([3]; 3 hr): 4.19
Cancer/Brain ratio ([3]; 6 hr): 15.14
Cancer/Kidney ratio ([3]; 6 hr): 1.36
Cancer/Liver ratio ([3]; 6 hr): 2.02
Cancer/Lung ratio ([3]; 6 hr): 7.85
Cancer/Muscle ratio ([3]; 6 hr): 3.72
Cancer/Brain ratio ([3]; 12 hr): 15.0
Cancer/Kidney ratio ([3]; 12 hr): 1.27
Cancer/Liver ratio ([3]; 12 hr): 0.92
Cancer/Lung ratio ([3]; 12 hr): 6.45
Cancer/Muscle ratio ([3]; 12 hr): 4.73
accumulability to cancerous tissues ([3]; compared with position isomer): much higher accumulability to cancerous tissues as compared with its position isomer
Kp at 3 h ([4]; 3 hr): 1.48
Kp at 6 h ([4]; 6 hr): 1.18
Kp at 12 h ([4]; 12 hr): 2.37
longest wavelength absorption end [5]: ≥ 670 nm
Occlusion of choroidal neoplastic vessels [6, 10]: Closed
Occlusion of choroidal neoplastic vessels ([6]; 7.4 J/cm^2, irradiation immediately after administration): Closed
selective occlusion of choroidal neoplastic vessels and choriocapillaris ([6]; 7.4 J/cm^2 immediately after administration): selective occlusion of the choroidal neoplastic vessels and choriocapillaris was achieved without causing serious damage to the retinal capillaries and choroidal arteries and veins
Occlusion of choroidal neoplastic vessels [6, 11]: Closed
Occlusion of choroidal neoplastic vessels [6, 12]: Closed
Occlusion of choroidal neoplastic vessels [6, 13]: Closed
Occlusion of choroidal neoplastic vessels ([6]; 22.0 J/cm^2, irradiation immediately after administration): Closed
selective occlusion of choroidal neoplastic vessels and choriocapillaris ([6]; 22.0 J/cm^2 at 2-4 hours after administration): selective occlusion of the choroidal neoplastic vessels and choriocapillaris was achieved without causing serious damage to the retinal capillaries and choroidal arteries and veins
Occlusion of choroidal neoplastic vessels [6, 14]: Closed
Occlusion of choroidal neoplastic vessels [6, 15]: Closed
Occlusion of choroidal neoplastic vessels [6, 16]: Closed
Occlusion of choroidal neoplastic vessels [6, 17]: Closed
Occlusion of choroidal neoplastic vessels [6, 18]: Cldsed
Occlusion of choroidal neoplastic vessels [6, 19]: Closed
Occlusion of choroidal neoplastic vessels [6, 20]: Closed
Occlusion of choroidal neoplastic vessels [6, 21]: Closed
accumulability to cancerous tissues ([7]; compared with compound of formula (II)): remarkably superior accumulability to cancerous tissues as compared with the compound of formula (II)
excretion from normal tissues ([7]; in vivo): quick excretion property from normal tissues
cell destructing effect induced by a photosensitizing reaction [8]: strong cell destructing effect induced by a photosensitizing reaction
viability at 6.25 µM ([8]; Homo sapiens, HeLa, light or radiation study, 6.25 μM, sodium salt, 6 hrs, 670 nm, 25 J/cm^2, read-out: Cell Survival Rate): 43%
viability at 12.5 µM ([8]; Homo sapiens, HeLa, light or radiation study, 12.5 μM, sodium salt, 6 hrs, 670 nm, 25 J/cm^2, read-out: Cell Survival Rate): 19%
viability at 25 µM ([8]; Homo sapiens, HeLa, light or radiation study, 25 μM, sodium salt, 6 hrs, 670 nm, 25 J/cm^2, read-out: Cell Survival Rate): 13%
viability at 50 µM ([8]; Homo sapiens, HeLa, light or radiation study, 50 μM, sodium salt, 6 hrs, 670 nm, 25 J/cm^2, read-out: Cell Survival Rate): 10%
viability at 100 µM ([8]; Homo sapiens, HeLa, light or radiation study, 100 μM, sodium salt, 6 hrs, 670 nm, 25 J/cm^2, read-out: Cell Survival Rate): 10%
cell killing effect against tumor cells ([8]; compared with position isomer): remarkably higher cell killing effect against tumor cells compared with the position isomer
Occlusion of choroidal arteries and veins [9, 10]: Closed
Occlusion of choroidal arteries and veins ([9]; 7.4 J/cm^2, irradiation 120 min after administration): Open
Occlusion of choroidal arteries and veins ([9]; 7.4 J/cm^2, irradiation 240 min after administration): Open
Occlusion of choroidal arteries and veins [9, 11]: Closed
Occlusion of choroidal arteries and veins [9, 12]: Open
Occlusion of choroidal arteries and veins [9, 13]: Open
Occlusion of choroidal arteries and veins [9, 14]: Closed
Occlusion of choroidal arteries and veins [9, 15]: Open
Occlusion of choroidal arteries and veins [9, 16]: Open
Occlusion of choroidal arteries and veins [9, 17]: Closed
Occlusion of choroidal arteries and veins [9, 18]: Closed
Occlusion of choroidal arteries and veins [9, 19]: Open
Occlusion of choroidal arteries and veins [9, 20]: Open
Occlusion of choroidal arteries and veins [9, 21]: Closed
